According to PubChem BioAssay (NCI):
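Assay format: 96-well plates, 48-hour exposure. Definition used: TGI = concentration required for complete inhibition of growth.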

How the values were obtained:
Test in all cases: growth of human tumour cells (NCI), 48 h
[1] = test system: RPMI-8226 leukemia
[2] = test system: UO-31 renal
[3] = test system: CCRF-CEM leukemia
[4] = test system: COLO 205 colon
[5] = test system: MALME-3M melanoma
[6] = test system: MOLT-4 leukemia
[7] = test system: SF-295 CNS
[8] = test system: HCC-2998 colon
[9] = test system: NCI-H226 lung
[10] = test system: DLD-1 colon
[11] = test system: CAKI-1 renal
[12] = test system: NCI-H522 lung
[13] = test system: KM20L2 colon
[14] = test system: HOP-92 NSCLC
[15] = test system: HOP-18 NSCLC
[16] = test system: SK-MEL-28 melanoma
[17] = test system: M14 melanoma
[18] = test system: EKVX NSCLC
[19] = test system: TK-10 renal
[20] = test system: OVCAR-3 ovarian
[21] = test system: NCI-H23 lung
[22] = test system: SK-MEL-5 melanoma
[23] = test system: OVCAR-8 ovarian
[24] = test system: LOX IMVI melanoma
[25] = test system: OVCAR-5 ovarian
[26] = test system: UACC-257 melanoma
[27] = test system: M19-MEL melanoma
[28] = test system: KM12 colon
[29] = test system: SK-MEL-2 melanoma
[30] = test system: SR leukemia
[31] = test system: DMS 273 small cell lung
[32] = test system: SW-620 colon
[33] = test system: K-562 leukemia
[34] = test system: HT29 colon
[35] = test system: HOP-62 NSCLC
[36] = test system: HCT-116 colon
[37] = test system: ACHN renal
[38] = test system: HCT-15 colon
[39] = test system: OVCAR-4 ovarian
[40] = test system: NCI-H460 lung
[41] = test system: LXFL 529 NSCLC
[42] = test system: RXF 393 renal
[43] = test system: DMS 114 small cell lung
[44] = test system: SN12C renal
[45] = test system: SF-268 CNS
[46] = test system: SNB-19 CNS
[47] = test system: UACC-62 melanoma
[48] = test system: 786-0 renal
[49] = test system: A549 NSCLC
[50] = test system: SF-539 CNS
[51] = test system: SNB-78 CNS
[52] = test system: SK-OV-3 ovarian
[53] = test system: IGROV1 ovarian
[54] = test system: U251 CNS
[55] = test system: SNB-75 CNS
[56] = test system: HL-60(TB) leukemia
[57] = test system: XF 498 CNS

C#CCN1C(=O)CN2C(Cl)(Cl)C2(c2ccccc2)c2cc(Cl)ccc21 (configuration not stated)
TGI [1]: > 100 µM
TGI [2]: > 100 µM
TGI [3]: > 100 µM
TGI [4]: > 100 µM
TGI [5]: > 100 µM
TGI [6]: 57.4 µM
TGI [7]: > 100 µM
TGI [8]: > 100 µM
TGI [9]: > 100 µM
TGI [10]: > 100 µM
TGI [11]: > 100 µM
TGI [12]: 75.2 µM
TGI [13]: > 100 µM
TGI [14]: > 100 µM
TGI [15]: > 100 µM
TGI [16]: > 100 µM
TGI [17]: > 100 µM
TGI [18]: > 100 µM
TGI [19]: > 100 µM
TGI [20]: > 100 µM
TGI [21]: > 100 µM
TGI [22]: > 100 µM
TGI [23]: > 100 µM
TGI [24]: > 100 µM
TGI [25]: > 100 µM
TGI [26]: > 100 µM
TGI [27]: > 100 µM
TGI [28]: 94 µM
TGI [29]: > 100 µM
TGI [30]: > 100 µM
TGI [31]: > 100 µM
TGI [32]: > 100 µM
TGI [33]: > 100 µM
TGI [34]: > 100 µM
TGI [35]: > 100 µM
TGI [36]: > 100 µM
TGI [37]: > 100 µM
TGI [38]: > 100 µM
TGI [39]: > 100 µM
TGI [40]: > 100 µM
TGI [41]: > 100 µM
TGI [42]: > 100 µM
TGI [43]: > 100 µM
TGI [44]: > 100 µM
TGI [45]: > 100 µM

O=c1[nH]c(C2CCCCC2)nc2ccc(Cl)cc12
TGI [1]: > 100 µM
TGI [2]: > 100 µM
TGI [46]: > 100 µM
TGI [4]: > 100 µM
TGI [5]: > 100 µM
TGI [6]: > 100 µM
TGI [7]: > 100 µM
TGI [8]: > 100 µM
TGI [9]: > 100 µM
TGI [47]: > 100 µM
TGI [48]: > 100 µM
TGI [13]: > 100 µM
TGI [14]: > 100 µM
TGI [49]: > 100 µM
TGI [50]: > 100 µM
TGI [16]: > 100 µM
TGI [18]: > 100 µM
TGI [19]: > 100 µM
TGI [20]: > 100 µM
TGI [21]: > 100 µM
TGI [22]: > 100 µM
TGI [23]: > 100 µM
TGI [25]: > 100 µM
TGI [26]: > 100 µM
TGI [27]: > 100 µM
TGI [28]: > 100 µM
TGI [29]: > 100 µM
TGI [30]: > 100 µM
TGI [51]: > 100 µM
TGI [31]: > 100 µM
TGI [32]: > 100 µM
TGI [33]: > 100 µM
TGI [34]: > 100 µM
TGI [36]: > 100 µM
TGI [52]: > 100 µM
TGI [37]: > 100 µM
TGI [38]: > 100 µM
TGI [53]: > 100 µM
TGI [54]: > 100 µM
TGI [41]: > 100 µM
TGI [42]: > 100 µM
TGI [43]: > 100 µM
TGI [55]: > 100 µM
TGI [44]: > 100 µM
TGI [45]: > 100 µM

COc1ccc(-c2oc(C=Nc3ccccc3)c([N+](=O)[O-])c2-c2ccc(OC)c(OC)c2)cc1OC
TGI [1]: > 100 µM
TGI [2]: > 100 µM
TGI [46]: > 100 µM
TGI [4]: > 100 µM
TGI [5]: > 100 µM
TGI [6]: > 100 µM
TGI [7]: > 100 µM
TGI [8]: > 100 µM
TGI [9]: > 100 µM
TGI [10]: > 100 µM
TGI [11]: > 100 µM
TGI [47]: > 100 µM
TGI [12]: > 100 µM
TGI [48]: > 100 µM
TGI [13]: > 100 µM
TGI [14]: > 100 µM
TGI [49]: > 100 µM
TGI [50]: > 100 µM
TGI [16]: > 100 µM
TGI [17]: > 100 µM
TGI [19]: > 100 µM
TGI [20]: > 100 µM
TGI [21]: > 100 µM
TGI [22]: > 100 µM
TGI [23]: > 100 µM
TGI [24]: > 100 µM
TGI [25]: > 100 µM
TGI [26]: > 100 µM
TGI [27]: > 100 µM
TGI [28]: > 100 µM
TGI [56]: > 100 µM
TGI [30]: > 100 µM
TGI [51]: > 100 µM
TGI [31]: > 100 µM
TGI [32]: > 100 µM
TGI [33]: > 100 µM
TGI [34]: > 100 µM
TGI [35]: > 100 µM
TGI [36]: > 100 µM
TGI [52]: > 100 µM
TGI [37]: > 100 µM
TGI [38]: > 100 µM
TGI [53]: > 100 µM
TGI [54]: > 100 µM
TGI [39]: > 100 µM
TGI [40]: > 100 µM
TGI [41]: > 100 µM
TGI [57]: > 100 µM
TGI [42]: > 100 µM
TGI [43]: > 100 µM
TGI [55]: > 100 µM
TGI [44]: > 100 µM
TGI [45]: > 100 µM

Cc1ccccc1C1SCc2nc3ccccc3n21 (configuration not stated)
TGI [1]: > 100 µM
TGI [2]: > 100 µM
TGI [46]: > 100 µM
TGI [3]: > 100 µM
TGI [4]: > 100 µM
TGI [5]: > 100 µM
TGI [7]: > 100 µM
TGI [8]: > 100 µM
TGI [9]: > 100 µM
TGI [10]: > 100 µM
TGI [11]: > 100 µM
TGI [47]: > 100 µM
TGI [12]: > 100 µM
TGI [48]: > 100 µM
TGI [14]: 49.5 µM
TGI [15]: > 100 µM
TGI [49]: > 100 µM
TGI [50]: > 100 µM
TGI [16]: > 100 µM
TGI [18]: > 100 µM
TGI [19]: > 100 µM
TGI [20]: > 100 µM
TGI [21]: > 100 µM
TGI [22]: > 100 µM
TGI [23]: > 100 µM
TGI [25]: > 100 µM
TGI [26]: > 100 µM
TGI [27]: > 100 µM
TGI [28]: > 100 µM
TGI [56]: > 100 µM
TGI [29]: > 100 µM
TGI [51]: > 100 µM
TGI [31]: > 100 µM
TGI [33]: > 100 µM
TGI [36]: > 100 µM
TGI [52]: > 100 µM
TGI [37]: > 100 µM
TGI [53]: > 100 µM
TGI [54]: > 100 µM
TGI [42]: > 100 µM
TGI [43]: > 100 µM
TGI [55]: > 100 µM
TGI [44]: > 100 µM
TGI [45]: > 100 µM
